Reference: patent US6448430B1, “Process for the preparation of aryl carboxylate esters” (priority 1999, dated 2002)

Assay: Solubility of NOBS in selected solvents
Format: physicochemical
Conditions: TFA versus acetic acid; ambient temperature
Description: The solvent properties of TFA are unique and highly advantageous in the synthesis of phenolsulfonate esters. […] It is notable that the only solvent in which NOBS is more soluble than water is TFA. I have found no better solvent for NOBS than TFA. This is surprising. […] It is likely that hydrogen bonding in TFA facilitates the solvation of sulfonate anions but it is notable, in contrast, that such effects are much weaker in acetic acid. Furthermore, while it is known in the art that dimethyl sulfoxide (DMSO) and dimethylformamide (DMF) are relatively good solvents for benzenesulfonate esters they are much weaker solvents than TFA and because TFA has a much lower boiling point than these dipolar aprotic solvents it is the only good solvent for benzenesulfonate esters which can be readily stripped from product solutions and then purified and recycled with relative ease.

Amount of NOBS dissolved by TFA relative to the amount soluble in acetic acid: more than ten times
SMILES: CCCCCCCCC(=O)Oc1ccc(S(=O)(=O)[O-])cc1.[Na+] [NOBS, sodium 4-(nonanoyloxy)benzene sulfonate]
